The record followed here is US11319299B2, “Substituted carboxamides as inhibitors of WDR5 protein-protein binding” (PROPELLON THERAPEUTICS INC., priority 2016, dated 2022).

The target of the first assay is WDR5 (Homo sapiens (Human), UniProt P61964). The assay can be described thus: Surface Plasmon Resonance (SPR) assay, KD and residence time. Conditions: surface plasmon resonance (SPR) assay; read-out: WDR5 binding affinity (KD). Type of assay: binding.
As to `C[C@@H]1CN(c2cc(F)c(-c3cnc(N4CCOCC4)nc3)cc2NC(=O)c2ccc(F)cc2C(F)(F)F)C[C@H](C)N1` [Example 364, 4-fluoro-N-[4-fluoro-5-(2-morpholin-4-ylpyrimidin-5-yl)-2-[(3R,5S)-3,5-dimethylpiperazin-1-yl]phenyl]-2-(trifluoromethyl)benzamide], the dissociation constant Kd was found to be 5.87 nM.
In the case of `C[C@@H]1CN(c2cc(F)c(C3CCN(C(=O)CC(C)(C)C)CC3)cc2NC(=O)c2c[nH]c(=O)cc2C(F)(F)F)C[C@H](C)N1C` [Example 256, N-[5-[1-(3,3-dimethylbutanoyl)piperidin-4-yl]-4-fluoro-2-[(3R,5S)-3,4,5-trimethylpiperazin-1-yl]phenyl]-6-oxo-4-(trifluoromethyl)-1H-pyridine-3-carboxamide], the Kd is 11.8 nM.
In the case of `C[C@@H]1CN(c2cc(F)c(-c3cnc(N4CCOCC4)nc3)cc2NC(=O)c2cc(F)cc(C(F)(F)F)c2)C[C@H](C)N1C` [Example 176, 3-fluoro-N-[4-fluoro-5-(2-morpholin-4-ylpyrimidin-5-yl)-2-[(3R,5S)-3,4,5-trimethylpiperazin-1-yl]phenyl]-5-(trifluoromethyl)benzamide], the equilibrium dissociation constant (Kd) worked out at 50.9 nM.
Consider `CC1CN(c2cc(F)c(-c3cnc(N4CCOCC4)nc3)cc2NC(=O)c2cccnc2)CCN1C` (stereo in doubt) [Example 80, N-[4-fluoro-5-(2-morpholin-4-ylpyrimidin-5-yl)-2-[(3R)-3,4-dimethylpiperazin-1-yl]phenyl]pyridine-3-carboxamide], for which the Kd is more than 200 nM.
The same measure, in the same setting: then `C[C@@H]1CN(c2ncc(-c3cc(NC(=O)c4c[nH]c(=O)cc4C(F)F)c(N4C[C@@H](C)N(C)[C@@H](C)C4)cc3F)cn2)C[C@H](C)O1` [Example 385, 4-(difluoromethyl)-N-[4-fluoro-5-[2-[(2R,6S)-2,6-dimethylmorpholin-4-yl]pyrimidin-5-yl]-2-[(3S,5R)-3,4,5-trimethylpiperazin-1-yl]phenyl]-6-oxo-1H-pyridine-3-carboxamide], with 0.72 nM; and `CN(C)C1CCN(c2cc(F)c(-c3cnc(N4CCOCC4)nc3)cc2NC(=O)c2c[nH]c(=O)cc2C(F)(F)F)CC1` [Example 258, N-[2-[4-(dimethylamino)piperidin-1-yl]-4-fluoro-5-(2-morpholin-4-ylpyrimidin-5-yl)phenyl]-6-oxo-4-(trifluoromethyl)-1H-pyridine-3-carboxamide], with 66.1 nM.
With `C[C@@H]1CN(c2cc(F)c(-c3ccc(O)nc3)cc2NC(=O)c2c[nH]c(=O)cc2C(F)(F)F)C[C@H](C)N1C` [Example 157, N-[4-fluoro-5-(6-hydroxypyridin-3-yl)-2-[(3R,5S)-3,4,5-trimethylpiperazin-1-yl]phenyl]-6-oxo-4-(trifluoromethyl)-1H-pyridine-3-carboxamide], the Kd came to 2.16 nM.
Same read-out and setting: as for `C[C@@H]1CN(c2cc(F)c(-c3cnc(N4CCOCC4)nc3)cc2NC(=O)c2cc(O)cc(F)c2F)C[C@H](C)N1C` [Example 291, 2,3-difluoro-N-[4-fluoro-5-(2-morpholin-4-ylpyrimidin-5-yl)-2-[(3R,5S)-3,4,5-trimethylpiperazin-1-yl]phenyl]-5-hydroxybenzamide], the figure is 4.21 nM; as for `C[C@@H]1CN(c2cc(F)c(C3=CCN(C(=O)Oc4ccccc4)CC3)cc2NC(=O)c2c[nH]c(=O)cc2C(F)(F)F)C[C@H](C)N1C` [Example 288, phenyl 4-[2-fluoro-5-[[6-oxo-4-(trifluoromethyl)-1H-pyridine-3-carbonyl]amino]-4-[(3R,5S)-3,4,5-trimethylpiperazin-1-yl]phenyl]-3,6-dihydro-2H-pyridine-1-carboxylate], 1.11 nM.
On to `C[C@@H]1CN(c2cc(F)c(C3=CCN(C(=O)N4CCCC4)CC3)cc2NC(=O)c2c[nH]c(=O)cc2C(F)(F)F)C[C@H](C)N1C` [Example 286, N-[4-fluoro-5-[1-(pyrrolidine-1-carbonyl)-3,6-dihydro-2H-pyridin-4-yl]-2-[(3R,5S)-3,4,5-trimethylpiperazin-1-yl]phenyl]-6-oxo-4-(trifluoromethyl)-1H-pyridine-3-carboxamide], for which the Kd is 1.18 nM.
For `C[C@@H]1CN(c2cc(F)c(-c3cnc(N4CCOCC4)nc3)cc2NC(=O)c2ccccc2C(F)(F)F)C[C@H](C)N1C` [Example 141, N-[4-fluoro-5-(2-morpholin-4-ylpyrimidin-5-yl)-2-[(3R,5S)-3,4,5-trimethylpiperazin-1-yl]phenyl]-2-(trifluoromethyl)benzamide], the Kd came to 16.2 nM.

The assay is the same for the next values; noted with them: surface plasmon resonance (SPR); read-out: WDR5 binding affinity (KD).
Turning to `C[C@@H]1CN(c2cc(F)c(-c3csc(C(=O)N4CCOCC4)n3)cc2NC(=O)c2c[nH]c(=O)cc2C(F)(F)F)C[C@H](C)N1C` [Example 535, N-[4-fluoro-5-[2-(morpholine-4-carbonyl)-1,3-thiazol-4-yl]-2-[(3R,5S)-3,4,5-trimethylpiperazin-1-yl]phenyl]-6-oxo-4-(trifluoromethyl)-1H-pyridine-3-carboxamide], the dissociation constant (Kd) turned out to be 2.8 nM.
`O=C(Nc1cc(-c2cnc(N3CCOCC3)nc2)c(F)cc1N1C[C@H]2CCN[C@H]2C1)c1c[nH]c(=O)cc1C(F)(F)F` (stereo in doubt) [Example 463, N-[4-fluoro-5-(2-morpholin-4-ylpyrimidin-5-yl)-2-[(3aR,6aR)-2,3,3a,4,6,6a-hexahydro-1H-pyrrolo[2,3-c]pyrrol-5-yl]phenyl]-6-oxo-4-(trifluoromethyl)-1H-pyridine-3-carboxamide]: the Kd came out at 168 nM.
The same measure, in the same setting: as for `C[C@@H]1CN(c2cc(F)c(-c3ccc(=O)n(C)c3)cc2NC(=O)c2c[nH]c(=O)cc2C(F)(F)F)C[C@H](C)N1C` [Example 568, N-[4-fluoro-5-(1-methyl-6-oxopyridin-3-yl)-2-[(3R,5S)-3,4,5-trimethylpiperazin-1-yl]phenyl]-6-oxo-4-(trifluoromethyl)-1H-pyridine-3-carboxamide], the figure is 4.58 nM; as for `CC1CN(c2cc(F)c(-c3cnc(N4CCOCC4)nc3)cc2NC(=O)c2c[nH]c(=O)c(C(F)(F)F)c2)CCN1C` (stereo in doubt) [Example 495, N-[4-fluoro-5-(2-morpholin-4-ylpyrimidin-5-yl)-2-[(3R)-3,4-dimethylpiperazin-1-yl]phenyl]-6-oxo-5-(trifluoromethyl)-1H-pyridine-3-carboxamide], 24.9 nM.
`CNC(=O)c1ccc(-c2cc(NC(=O)c3c[nH]c(=O)cc3C(F)F)c(N3CCN(C)C(C)C3)cc2F)cc1F` (stereo in doubt) [Example 597, 4-(difluoromethyl)-N-[4-fluoro-5-[3-fluoro-4-(methylcarbamoyl)phenyl]-2-[(3R)-3,4-dimethylpiperazin-1-yl]phenyl]-6-oxo-1H-pyridine-3-carboxamide]: the Kd came out at 0.711 nM.
The same measure, in the same setting: as for `C[C@@H]1CN(c2cc(F)c(-c3cc(F)c(C(=O)N(C)C4COC4)c(F)c3)cc2NC(=O)c2c[nH]c(=O)cc2C(F)(F)F)C[C@H](C)N1C` [Example 763, 6-oxo-N-(3′,5′,6-trifluoro-4′-(methyl(oxetan-3-yl)carbamoyl)-4-((3S,5R)-3,4,5-trimethylpiperazin-1-yl)-[1,1′-biphenyl]-3-yl)-4-(trifluoromethyl)-1,6-dihydropyridine-3-carboxamide], the figure is 0.7 nM; as for `C[C@@H]1CN(c2cc(F)c(C3=CCN(c4ncc(CN(C)C)cn4)C3)cc2NC(=O)c2c[nH]c(=O)cc2C(F)(F)F)C[C@H](C)N1C` [Example 457, N-[5-[1-[5-[(dimethylamino)methyl]pyrimidin-2-yl]-2,5-dihydropyrrol-3-yl]-4-fluoro-2-[(3R,5S)-3,4,5-trimethylpiperazin-1-yl]phenyl]-6-oxo-4-(trifluoromethyl)-1H-pyridine-3-carboxamide], 2.57 nM.
Consider `C[C@@H]1CN(c2cc(F)c(C3=CCCN(c4ncc(C=O)cn4)C3)cc2NC(=O)c2c[nH]c(=O)cc2C(F)(F)F)C[C@H](C)N1C` [Example 409, N-[4-fluoro-5-[1-(5-formylpyrimidin-2-yl)-3,6-dihydro-2H-pyridin-5-yl]-2-[(3R,5S)-3,4,5-trimethylpiperazin-1-yl]phenyl]-6-oxo-4-(trifluoromethyl)-1H-pyridine-3-carboxamide], for which the Kd worked out at 0.229 nM.
`C[C@@H]1CN(c2cc(F)c(-c3ccnc(N4CCOCC4)n3)cc2NC(=O)c2c[nH]c(=O)cc2C(F)F)C[C@H](C)N1C` [Example 692, 4-(difluoromethyl)-N-[4-fluoro-5-(2-morpholin-4-ylpyrimidin-4-yl)-2-[(3R,5S)-3,4,5-trimethylpiperazin-1-yl]phenyl]-6-oxo-1H-pyridine-3-carboxamide]: the dissociation constant Kd was 2.4 nM.
As to `C[C@@H]1CN(c2cc(F)c(-c3ccc(C(=O)NC4CCCCC4)c(F)c3)cc2NC(=O)c2c[nH]c(=O)cc2C(F)(F)F)C[C@H](C)N1C` [Example 732, N-[5-[4-(cyclohexylcarbamoyl)-3-fluorophenyl]-4-fluoro-2-[(3R,5S)-3,4,5-trimethylpiperazin-1-yl]phenyl]-6-oxo-4-(trifluoromethyl)-1H-pyridine-3-carboxamide], the dissociation constant Kd came to 2.76 nM.
Take `C[C@@H]1CN(c2cc(F)c(-c3csc(C(=O)NC4CCCCC4)n3)cc2NC(=O)c2cn(C)c(=O)cc2C(F)(F)F)C[C@H](C)N1C` [Example 525, N-cyclohexyl-4-[2-fluoro-5-[[1-methyl-6-oxo-4-(trifluoromethyl)pyridine-3-carbonyl]amino]-4-[(3R,5S)-3,4,5-trimethylpiperazin-1-yl]phenyl]-1,3-thiazole-2-carboxamide]: the Kd came to 5.42 nM.
In the case of `CCCN1CC[C@@H]2CN(c3cc(F)c(-c4cnc(N5CCOCC5)nc4)cc3NC(=O)c3c[nH]c(=O)cc3C(F)(F)F)C[C@@H]21` (stereo in doubt) [Example 476, N-[4-fluoro-5-(2-morpholin-4-ylpyrimidin-5-yl)-2-[(3aR,6aR)-1-propyl-2,3,3a,4,6,6a-hexahydropyrrolo[2,3-c]pyrrol-5-yl]phenyl]-6-oxo-4-(trifluoromethyl)-1H-pyridine-3-carboxamide], the Kd was 9.71 nM.
As to `C[C@@H]1CN(c2cc(F)c(C3=CCCN(C(=O)OC4CC(F)(F)C4)C3)cc2NC(=O)c2c[nH]c(=O)cc2C(F)F)C[C@H](C)N1C` [Example 704, (3,3-difluorocyclobutyl) 5-[5-[[4-(difluoromethyl)-6-oxo-1H-pyridine-3-carbonyl]amino]-2-fluoro-4-[(3R,5S)-3,4,5-trimethylpiperazin-1-yl]phenyl]-3,6-dihydro-2H-pyridine-1-carboxylate], the Kd was found to be 2.72 nM.
